Test results: patent publication US20120270237A9, “METHODS FOR THE IDENTIFICATION OF KINASE INTERACTING MOLECULES AND FOR THE PURIFICATION OF KINASE PROTEINS” (Cellzone AG, priority 2009, published 2012)

Assays:
[1] = target: CaMKK2 (Homo sapiens, UniProt Q96RR4); assay: Kinobeads competition binding, L-363 cell lysate; design: capturing and identification of kinases from L-363 cell lysate; endogenous in cells; host or cells: L-363 cells (DSMZ ACC49), pre-treated with MG132; settings: 10 μM free compound, L-363 lysate
Experimental: (§1) To one aliquot of cell lysate 10 μM of the free compound (FIG. 3, CZC31326) was added and allowed to bind to proteins in the lysate. Then the affinity matrix with the immobilized compound was added to capture proteins that were not interacting with the previously added free compound. Beads were separated from the lysate and bead bound proteins were eluted in SDS sample buffer and subsequently separated by SDS-Polyacrylamide gel electrophoresis (FIG. 8). Suitable gel bands were cut out and subjected to in-gel proteolytic digestion with trypsin. The second lysate aliquot was processed identically, however no free compound was added (DMSO solvent control). Peptides originating from samples 1 and 2 were labeled with iTRAQ reagents (iTRAQ 114 and iTRAQ 117) and the combined samples were analyzed with a nano-flow liquid chromatography system coupled online to a tandem mass spectrometer (LC-MS/MS) experiment followed by iTRAQ reporter ion quantification in the MS/MS spectra as described in Example 2.
(§2) For this experiment the human plasma cell leukaemia line L-363 was used (German Collection of Microorganisms and Cell Cultures, DSMZ number ACC49, Braunschweig, Germany). Cells were treated for three hours with 20 μM of the proteasome inhibitor MG132 (Z-Leu-Leu-Leu-al, Sigma C2211) prior to cell harvesting.

[2] = target: CK2a1 (Homo sapiens, UniProt P68400); assay: Kinobeads competition binding, L-363 cell lysate; design: capturing and identification of kinases from L-363 cell lysate; endogenous in cells; host or cells: L-363 cells (DSMZ ACC49), pre-treated with MG132; settings: 10 μM free compound, L-363 lysate
Experimental: as §1, §2

[3] = target: CDC2 (Homo sapiens, UniProt P06493); assay: Kinobeads competition binding, L-363 cell lysate; design: capturing and identification of kinases from L-363 cell lysate; endogenous in cells; host or cells: L-363 cells (DSMZ ACC49), pre-treated with MG132; settings: 10 μM free compound, L-363 lysate
Experimental: as §1, §2

[4] = target: T1, MST1 (Homo sapiens, UniProt Q13043); assay: Kinobeads competition binding, HeLa Placenta lysate mix; design: capturing and identification of kinases from mixed HeLa placenta lysates; endogenous in cells; host or cells: HeLa cells mixed with placenta tissue lysate; settings: 10 μM free compound
T1 sequence (Q13043 1-487): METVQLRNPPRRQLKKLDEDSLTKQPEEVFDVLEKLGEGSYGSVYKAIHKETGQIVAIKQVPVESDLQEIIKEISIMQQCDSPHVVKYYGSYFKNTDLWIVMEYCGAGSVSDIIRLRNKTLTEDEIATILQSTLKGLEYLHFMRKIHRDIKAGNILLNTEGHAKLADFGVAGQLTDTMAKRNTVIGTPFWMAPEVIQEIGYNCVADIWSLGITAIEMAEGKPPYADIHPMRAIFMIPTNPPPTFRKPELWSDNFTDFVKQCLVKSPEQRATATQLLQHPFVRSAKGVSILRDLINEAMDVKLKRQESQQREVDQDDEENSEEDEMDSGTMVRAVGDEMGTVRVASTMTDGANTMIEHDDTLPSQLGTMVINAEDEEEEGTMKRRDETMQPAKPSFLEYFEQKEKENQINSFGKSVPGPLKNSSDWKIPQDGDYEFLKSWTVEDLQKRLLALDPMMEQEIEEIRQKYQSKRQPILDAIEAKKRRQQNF
Experimental: as §1, with “10).” for “8).”

[5] = target: SLK (Homo sapiens, UniProt Q9H2G2); assay: as above; design: capturing and identification of kinases from mixed HeLa placenta lysates; endogenous in cells; host or cells: HeLa cells mixed with placenta tissue lysate; settings: 10 μM free compound
Experimental: as §1, with “10).” for “8).”

[6] = target: PKCa (Homo sapiens, UniProt P17252); assay: as above; design: capturing and identification of kinases from mixed HeLa placenta lysates; endogenous in cells; host or cells: HeLa cells mixed with placenta tissue lysate; settings: 10 μM free compound
Experimental: as §1, with “10).” for “8).”

[7] = target: T2, PHKg2 (Homo sapiens, UniProt P15735); assay: as above; design: capturing and identification of kinases from mixed HeLa placenta lysates; endogenous in cells; host or cells: HeLa cells mixed with placenta tissue lysate; settings: 10 μM free compound
T2 sequence (P15735 1-406): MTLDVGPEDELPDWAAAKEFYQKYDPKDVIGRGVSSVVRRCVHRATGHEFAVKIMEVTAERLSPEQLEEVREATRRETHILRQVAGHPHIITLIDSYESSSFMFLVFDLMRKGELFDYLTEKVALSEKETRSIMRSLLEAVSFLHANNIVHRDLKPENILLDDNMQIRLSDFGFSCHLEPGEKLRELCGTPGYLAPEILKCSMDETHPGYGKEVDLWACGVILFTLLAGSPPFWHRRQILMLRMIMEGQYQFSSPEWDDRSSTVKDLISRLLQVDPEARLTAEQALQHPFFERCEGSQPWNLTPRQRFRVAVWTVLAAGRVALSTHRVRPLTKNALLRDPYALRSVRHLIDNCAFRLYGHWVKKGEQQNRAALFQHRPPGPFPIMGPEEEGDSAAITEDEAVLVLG
Experimental: as §1, with “10).” for “8).”

Sequence of CK2a1 (P68400 whole entry): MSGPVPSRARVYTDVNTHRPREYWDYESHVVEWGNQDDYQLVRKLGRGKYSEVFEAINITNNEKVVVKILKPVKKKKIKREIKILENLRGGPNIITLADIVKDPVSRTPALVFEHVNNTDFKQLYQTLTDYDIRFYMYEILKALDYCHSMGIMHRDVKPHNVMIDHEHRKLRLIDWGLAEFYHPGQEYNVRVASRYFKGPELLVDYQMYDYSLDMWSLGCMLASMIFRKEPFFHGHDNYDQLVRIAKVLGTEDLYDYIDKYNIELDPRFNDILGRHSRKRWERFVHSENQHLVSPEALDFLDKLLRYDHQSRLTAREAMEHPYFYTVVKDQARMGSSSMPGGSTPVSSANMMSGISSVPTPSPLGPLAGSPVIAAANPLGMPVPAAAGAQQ
Sequence of CDC2 (P06493 whole entry): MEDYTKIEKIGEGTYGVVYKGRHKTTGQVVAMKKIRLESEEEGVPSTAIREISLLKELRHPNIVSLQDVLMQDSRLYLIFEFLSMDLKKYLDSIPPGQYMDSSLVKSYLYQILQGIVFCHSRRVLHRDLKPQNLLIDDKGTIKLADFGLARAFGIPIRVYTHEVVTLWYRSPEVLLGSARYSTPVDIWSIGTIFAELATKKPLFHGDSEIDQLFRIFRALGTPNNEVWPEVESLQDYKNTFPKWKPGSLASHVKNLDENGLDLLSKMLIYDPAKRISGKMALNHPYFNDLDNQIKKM
Sequence of SLK (Q9H2G2 whole entry): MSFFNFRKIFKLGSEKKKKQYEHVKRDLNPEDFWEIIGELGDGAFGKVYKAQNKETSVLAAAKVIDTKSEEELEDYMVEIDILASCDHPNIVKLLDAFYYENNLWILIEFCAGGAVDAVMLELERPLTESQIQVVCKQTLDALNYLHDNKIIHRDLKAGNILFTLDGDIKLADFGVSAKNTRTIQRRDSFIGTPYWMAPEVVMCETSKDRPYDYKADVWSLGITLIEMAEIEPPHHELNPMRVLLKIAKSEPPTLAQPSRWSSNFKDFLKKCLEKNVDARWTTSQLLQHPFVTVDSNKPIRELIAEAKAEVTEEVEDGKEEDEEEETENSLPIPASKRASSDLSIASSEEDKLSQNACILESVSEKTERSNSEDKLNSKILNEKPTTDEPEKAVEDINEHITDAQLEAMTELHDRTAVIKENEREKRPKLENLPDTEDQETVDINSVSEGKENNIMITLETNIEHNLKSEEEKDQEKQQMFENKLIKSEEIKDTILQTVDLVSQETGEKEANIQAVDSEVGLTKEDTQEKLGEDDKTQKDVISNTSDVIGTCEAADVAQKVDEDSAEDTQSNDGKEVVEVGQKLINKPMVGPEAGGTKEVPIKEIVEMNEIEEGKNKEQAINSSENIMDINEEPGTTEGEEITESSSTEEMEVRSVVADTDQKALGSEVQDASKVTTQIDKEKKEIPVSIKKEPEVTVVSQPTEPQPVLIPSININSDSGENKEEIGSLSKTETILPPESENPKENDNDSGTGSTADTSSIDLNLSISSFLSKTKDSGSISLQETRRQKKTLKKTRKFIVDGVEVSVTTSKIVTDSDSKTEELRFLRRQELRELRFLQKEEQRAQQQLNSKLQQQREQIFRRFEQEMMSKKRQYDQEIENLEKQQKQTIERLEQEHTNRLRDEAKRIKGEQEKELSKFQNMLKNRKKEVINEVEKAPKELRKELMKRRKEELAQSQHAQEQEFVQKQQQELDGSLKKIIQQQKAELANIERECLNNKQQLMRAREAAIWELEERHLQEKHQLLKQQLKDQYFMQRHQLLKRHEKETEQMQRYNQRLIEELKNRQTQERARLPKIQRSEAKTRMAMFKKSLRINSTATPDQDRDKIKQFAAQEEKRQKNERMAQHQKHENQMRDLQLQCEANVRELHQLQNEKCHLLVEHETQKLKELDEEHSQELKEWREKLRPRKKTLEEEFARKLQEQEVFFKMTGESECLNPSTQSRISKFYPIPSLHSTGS
Sequence of CaMKK2 (Q96RR4 whole entry): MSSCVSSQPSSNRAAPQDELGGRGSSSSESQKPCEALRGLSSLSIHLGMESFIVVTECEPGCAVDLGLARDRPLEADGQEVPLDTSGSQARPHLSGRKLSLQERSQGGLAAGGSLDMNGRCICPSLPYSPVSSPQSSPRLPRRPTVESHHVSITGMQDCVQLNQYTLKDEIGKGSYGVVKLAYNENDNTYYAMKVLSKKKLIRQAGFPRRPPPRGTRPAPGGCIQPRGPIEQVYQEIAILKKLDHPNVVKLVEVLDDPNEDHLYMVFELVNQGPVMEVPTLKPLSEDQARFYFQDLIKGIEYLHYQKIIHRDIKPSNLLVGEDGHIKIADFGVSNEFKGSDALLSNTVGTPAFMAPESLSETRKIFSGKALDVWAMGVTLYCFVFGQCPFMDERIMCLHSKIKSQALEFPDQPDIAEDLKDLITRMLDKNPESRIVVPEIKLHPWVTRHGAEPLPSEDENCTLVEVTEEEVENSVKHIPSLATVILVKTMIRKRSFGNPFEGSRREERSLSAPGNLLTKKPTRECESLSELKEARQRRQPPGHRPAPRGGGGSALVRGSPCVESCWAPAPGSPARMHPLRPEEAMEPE

## CS(=O)(=O)Nc1ccccc1Nc1nc(Nc2cccc(OCCN)c2)ncc1Cl [CZC31326, N-(2-(2-(3-(2-aminoethoxy)phenylamino)-5-chloropyrimidin-4-ylamino)phenyl)methanesulfonamide]
[1]
  inhibition at 10 µM: 97%
[2]
  inhibition at 10 µM: 97.9%
[3]
  inhibition at 10 µM: 95.1%
[4]
  Competition %: 94.6%
[5]
  inhibition at 10 µM: 93.2%
[6]
  inhibition at 10 µM: 94.9%
[7]
  inhibition at 10 µM: 89.9%
